Experimental data as given in US10059689B2, “Substituted heteroaryl compounds and methods of use” (Sunshine Lake Pharma Co., Ltd., priority 2014, dated 2018).
pIC50: −log10 of the molar value.

Assays:
[1] = Compound stability in human liver microsomes; format: in vitro ADME; conditions: for half-life: pH 7.4, 37° C., NADPH, read-out: Human T1/2; for CLint scaled: pH 7.4, in vivo CLint extrapolated
Protocol: (§1) Human or rat liver microsomes incubations were conducted in duplicate in polypropylene tubes. The typical incubation mixtures consisted of human or rat liver microsomes (0.5 mg protein/mL), compounds of interest (5 μM) and NADPH (1.0 mM) in a total volume of 200 μL potassium phosphate buffer (PBS, 100 mM, pH 7.4). Compounds were dissolved in DMSO and diluted with PBS such that the final concentration of DMSO was 0.05%. The enzymatic reactions were commenced with the addition of protein after a 3-min preincubation and incubated in a water bath open to the air at 37° C. Reactions were terminated at various time points (0, 5, 10, 15, 30, 60 min) by adding equal volume of ice-cold acetonitrile. The samples were stored at −80° C. until LC/MS/MS assays.
(§2) The concentrations of compounds in the incubation mixtures of human or rat liver microsomes were determined by a LC/MS/MS method. The ranges of the linearity in the concentration range were determined for each tested compounds.
(§3) A parallel incubation was performed using denatured microsomes as the negative control, and reactions were terminated at various time points (0, 15, 60 min) after incubation at 37° C.
(§4) Verapamil (1 μM) was selected as the positive control, and reactions were terminated at various time points (0, 5, 10, 15, 30, 60 min) after incubation at 37° C. Both positive and negative control samples were included in each assay to ensure the integrity of the microsomal incubation system.
(§5) In addition, the stability date of compound in human and rat liver microsomes was also obtained through the following method. Human or rat liver microsomes incubations were conducted in duplicate in polypropylene tubes. The typical incubation mixtures consisted of human or rat liver microsomes (0.5 mg protein/mL), compounds of interest (1.5 μM) and EDTA (1.0 mM) in a total volume of 30 μL potassium phosphate buffer (PBS, 100 mM, pH 7.4). Compounds were dissolved in DMSO and diluted with PBS such that the final concentration of DMSO was 0.2%. The enzymatic reactions were commenced with the addition of 15 μL NADPH (final concentration: 2 mM) after a 10-min preincubation and incubated in a water bath open to the air at 37° C. Reactions were terminated at various time points (0, 15, 30, 60 min) by adding 135 μL acetonitrile (contain IS). The samples were centrifuged at 4000 rpm for 10 min to remove protein, the supernatant was stored at −80° C. until LC/MS/MS assays. Ketanserin (1 μM) was selected as the positive control, and reactions were terminated at various time points (0, 15, 30, 60 min) after incubation at 37° C. Both positive and negative control samples were included in each assay to ensure the integrity of the microsomal incubation system.
(§6) The concentrations of compounds in human or rat liver microsome incubations were plotted as a percentage of the relevant zero time point control for each reaction. The in vivo CLint were extrapolated (ref.: Naritomi, Y.; Terashita, S.; Kimura, S.; Suzuki, A.; Kagayama, A.; and Sugiyama, Y.; Prediction of human hepatic clearance from in vivo animal experiments and in vitro metabolic studies with liver microsomes from animals and humans. Drug Metab. Dispos., 2001, 29: 1316-1324).

[2] = biological target: T1, JAK1 (h) (Homo sapiens, UniProt P23458); assay: JAK1 (h) kinase assay; format: biochemical
T1 construct: purchased Millipore UK Ltd (contract assay service)
Protocol: The above assay procedure can be used to determine the IC50 for inhibition and/or the inhibition constant, Ki. The IC50 is defined as the concentration of compound required to reduce the enzyme activity by 50% under the condition of the assay. The IC50 value is estimated by preparing a 10 point curve using a ½ log dilution series (for example, a typical curve may be prepared using the following compound concentrations: 3 μM, 1 μM, 0.3 μM, 0.1 μM, 0.03 μM, 0.01 μM, 0.003 μM, 0.001 μM, 0.0003 μM and 0 μM).
JAK1 (h) is incubated with 20 mM Tris/HCl pH 7.5, 0.2 mM EDTA, 500 μM GEEPLYWSFPAKKK, 10 mM MgAcetate and [γ-^33P-ATP] (specific activity approx. 500 cpm/pmol, concentration as required). The reaction is initiated by the addition of the MgATP mix. After incubation for 40 minutes at room temperature, the reaction is stopped by the addition of 3% phosphoric acid solution. 10 μL of the reaction is then spotted onto a P30 filtermat and washed three times for 5 minutes in 75 mM phosphoric acid and once in methanol prior to drying and scintillation counting.
The kinase assays described herein were performed at Millipore UK Ltd, Dundee Technology Park, Dundee DD2 1SW, UK.

[3] = Compound stability in rat liver microsomes; format: in vitro ADME; conditions: for half-life: pH 7.4, 37° C., NADPH, read-out: Rat T1/2; for CLint scaled: pH 7.4, in vivo CLint extrapolated
Protocol: as §1, §2, §3, §4, §5, §6

[4] = Pharmacokinetics after intravenous and oral administration in rats; format: in vivo; conditions: for clearance (CL) / AUC(0-t) / half-life / Vd: iv dosing, 1 mg/kg; for F: oral bioavailability; for AUC(0-t) / half-life / Vd: rat, plasma; for Vd: read-out: Vss
Protocol: The LC/MS/MS system used in the analysis consists of an Agilent 1200 Series vacuum degasser, binary pump, well-plate autosampler, thermostatted column compartment, the Agilent G6430 Triple Quadrupole Mass Spectrometer with an electrosprayionization (ESI) source. Quantitative analysis was carried out using MRM mode. The parameters for MRM transitions are in the Table A.
An Agilent XDB-C18, 2.1×30 mm, 3.5 μM column was used for the analysis. 5 μL of the samples were injected. Analysis condition: The mobile phase was 0.1% formic acid in water (A) and 0.1% formic acid in methanol (B). The flow rate was 0.4 mL/min. And the gradient of Mobile phase was in the Table B.
Alternatively, an Agilent 6330 series LC/MS/MS spectrometer equipped with G1312A binary pumps, a G1367A autosampler and a G1314C UV detector were used in the analysis. An ESI source was used on the LC/MS/MS spectrometer. The analysis was done in positive ion mode as appropriate and the MRM transition for each analyte was optimized using standard solution. A Capcell MP-C18 100×4.6 mm I.D., […] column (Phenomenex, Torrance, Calif., USA) was used during the analysis. The mobile phase was 5 mM ammonia acetate, 0.1% MeOH in water (A): 5 mM ammonia acetate, 0.1% MeOH in acetonitrile (B) (70:30, v/v). The flow rate was 0.6 mL/min. Column was maintained at ambient temperature. 20 μL of the samples were injected.
The compounds disclosed herein are assessed in pharmacokinetic studies in mice, rats, dogs or monkeys. The compounds are administered as a water solution, 2% HPMC+1% TWEEN®80 in water solution, 5% DMSO+5% solutol in saline, 4% MC suspension or capsule. For the intravenous administration, the animals are generally given at 1 or 2 mg/kg dose. For the oral (p.o.) dosing, mice and rats are generally given 5 or 10 mg/kg dose, and dogs and monkeys are generally given 10 mg/kg dose. The blood samples (0.3 mL) are drawn at 0.25, 0.5, 1.0, 2.0, 3.0, 4.0, 6.0, 8.0, 12 and 24 h time points or 0.083, 0.25, 0.5, 1.0, 2.0, 4.0, 6.0, 8.0 and 24 h time points and centrifuged at 3,000 or 4000 rpm for 2 to 10 min. The plasma solutions are collected, and stored at −20° C. or −70° C. until analyzed by LC/MS/MS as described above.

T1 sequence (P23458 whole entry): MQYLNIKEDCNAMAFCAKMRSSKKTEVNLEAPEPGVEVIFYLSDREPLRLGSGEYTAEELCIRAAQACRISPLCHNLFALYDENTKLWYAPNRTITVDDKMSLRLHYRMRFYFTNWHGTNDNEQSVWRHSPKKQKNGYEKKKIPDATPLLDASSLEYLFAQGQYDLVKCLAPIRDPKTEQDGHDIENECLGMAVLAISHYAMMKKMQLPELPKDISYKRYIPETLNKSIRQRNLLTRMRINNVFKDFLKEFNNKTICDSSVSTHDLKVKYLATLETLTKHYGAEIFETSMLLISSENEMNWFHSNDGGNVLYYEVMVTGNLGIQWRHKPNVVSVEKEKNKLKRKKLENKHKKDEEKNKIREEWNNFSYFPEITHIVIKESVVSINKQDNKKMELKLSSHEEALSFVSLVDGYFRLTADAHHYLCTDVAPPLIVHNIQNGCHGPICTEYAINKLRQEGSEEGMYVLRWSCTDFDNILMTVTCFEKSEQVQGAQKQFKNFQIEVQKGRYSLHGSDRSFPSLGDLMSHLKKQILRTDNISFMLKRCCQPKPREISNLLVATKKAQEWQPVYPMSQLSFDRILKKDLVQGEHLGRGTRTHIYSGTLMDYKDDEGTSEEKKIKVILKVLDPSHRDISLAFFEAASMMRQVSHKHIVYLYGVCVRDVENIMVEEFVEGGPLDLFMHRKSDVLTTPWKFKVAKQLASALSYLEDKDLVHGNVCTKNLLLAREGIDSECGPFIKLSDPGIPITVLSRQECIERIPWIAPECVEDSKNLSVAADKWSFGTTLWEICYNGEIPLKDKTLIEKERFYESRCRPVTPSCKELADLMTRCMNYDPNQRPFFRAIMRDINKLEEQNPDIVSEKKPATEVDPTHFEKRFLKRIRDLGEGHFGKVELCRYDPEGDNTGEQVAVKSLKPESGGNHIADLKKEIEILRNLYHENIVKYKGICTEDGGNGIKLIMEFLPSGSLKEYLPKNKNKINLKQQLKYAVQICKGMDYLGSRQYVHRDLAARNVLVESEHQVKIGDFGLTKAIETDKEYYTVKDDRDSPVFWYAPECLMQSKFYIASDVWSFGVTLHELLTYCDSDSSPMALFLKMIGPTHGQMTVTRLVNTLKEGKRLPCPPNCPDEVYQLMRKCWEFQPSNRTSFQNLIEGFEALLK

Cc1cnc(Nc2cnn(C)c2)nc1N(C)C1CCN(c2ccc(C#N)cn2)CC1 [Ex. 6, 6-(4-(methyl(5-methyl-2-((1-methyl-1H-pyrazol-4-yl)amino)pyrimidin-4-yl)amino)piperidin-1-yl)nicotinonitrile]
half-life [1]: 15.6 min
CLint scaled [1]: 6.68 L/h/kg
pIC50 [2]: 8.70
half-life [3]: 4.3 min
CLint scaled [3]: 34.6 L/h/kg
clearance (CL) [4]: 1.21 L/h/kg
F [4]: 22.2%
AUC(0-t) [4]: 1.36 µg·h/mL
half-life [4]: 35.9 min
Vd [4]: 0.56 L/kg

Cc1c2ccc(Nc3ncc(Cl)c(N(C)C4CCN(c5ccc(C#N)cn5)CC4)n3)cc2nn1C [Ex. 8, 6-(4-((5-chloro-2-((2,3-dimethyl-2H-indazol-6-yl)amino)pyrimidin-4-yl) (methyl)amino)piperidin-1-yl)nicotinonitrile]
pIC50 [2]: 8.52

CCC1CN(c2ccc(C#N)cn2)CCC1Nc1nc(Nc2cn(C)nc2C)ncc1Cl (stereo not drawn) [Ex. 16, 6-(4-((5-chloro-2-((1,3-dimethyl-1H-pyrazol-4-yl)amino)pyrimidin-4-yl)amino)-3-ethylpiperidin-1-yl)nicotinonitrile]
half-life [1]: 3.94 min
CLint scaled [1]: 26.5 L/h/kg
half-life [3]: 6.85 min
CLint scaled [3]: 21.8 L/h/kg
clearance (CL) [4]: 1.40 L/h/kg
F [4]: 60.9%
AUC(0-t) [4]: 0.722 µg·h/mL
half-life [4]: 39.6 min
Vd [4]: 0.96 L/kg

CCC1CN(c2ccc(C#N)nn2)CCC1Nc1nc(Nc2ccc3c(C)n(C)nc3c2)ncc1Cl (stereo not drawn) [Ex. 17, 6-(4-((5-chloro-2-((2,3-dimethyl-2H-indazol-6-yl)amino)pyrimidin-4-yl)amino)-3-ethylpiperidin-1-yl)pyridazine-3-carbonitrile]
half-life [1]: 11.1 min
CLint scaled [1]: 9.36 L/h/kg
half-life [3]: 3.81 min
CLint scaled [3]: 39.1 L/h/kg
clearance (CL) [4]: 1.10 L/h/kg
F [4]: 36.0%
AUC(0-t) [4]: 0.911 µg·h/mL
half-life [4]: 40.2 min
Vd [4]: 0.45 L/kg

CCC1CN(c2ccc(C#N)cn2)CCC1N(C)c1nc(Nc2cc(C)n(C)n2)ncc1Cl (stereo not drawn) [Ex. 18, 6-(4-((5-chloro-2-((1,5-dimethyl-1H-pyrazol-3-yl)amino)pyrimidin-4-yl) (methyl)amino)-3-ethylpiperidin-1-yl)nicotinonitrile]
half-life [1]: 22.9 min
CLint scaled [1]: 4.56 L/h/kg
half-life [3]: 37.6 min
CLint scaled [3]: 3.96 L/h/kg
clearance (CL) [4]: 1.42 L/h/kg
F [4]: 66.8%
AUC(0-t) [4]: 0.663 µg·h/mL
half-life [4]: 109 min
Vd [4]: 2.88 L/kg

CCC1CN(c2ccc(C#N)nn2)CCC1N(C)c1nc(Nc2ccc3c(C)n(C)nc3c2)ncc1Cl (stereo not drawn) [Ex. 19, 6-(4-((5-chloro-2-((2,3-dimethyl-2H-indazol-6-yl)amino)pyrimidin-4-yl)(methyl)amino)-3-ethylpiperidin-1-yl)pyridazine-3-carbonitrile]
half-life [1]: 10.5 min
CLint scaled [1]: 9.9 L/h/kg
half-life [3]: 6.55 min
CLint scaled [3]: 22.7 L/h/kg
clearance (CL) [4]: 2.63 L/h/kg
F [4]: 23.4%
AUC(0-t) [4]: 0.381 µg·h/mL
half-life [4]: 27 min
Vd [4]: 1.4 L/kg

CCC1CN(c2ccc(C#N)cn2)CCC1N(C)c1nc(Nc2ccc3c(C)n(C)nc3c2)ncc1Cl (stereo not drawn) [Ex. 20, 6-(4-((5-chloro-2-((2,3-dimethyl-2H-indazol-6-yl)amino)pyrimidin-4-yl)(methyl)amino)-3-ethylpiperidin-1-yl)nicotinonitrile]
half-life [1]: 26 min
CLint scaled [1]: 4.01 L/h/kg
half-life [3]: 15 min
CLint scaled [3]: 9.95 L/h/kg
clearance (CL) [4]: 1.10 L/h/kg
F [4]: 30.4%
AUC(0-t) [4]: 0.881 µg·h/mL
half-life [4]: 90 min
Vd [4]: 1.9 L/kg

CCC1CN(c2ccc(C#N)cn2)CCC1Nc1nc(Nc2cc(C)n(C)n2)ncc1Cl (stereo not drawn) [Ex. 21, 6-(4-((5-chloro-2-((1,5-dimethyl-1H-pyrazol-3-yl)amino)pyrimidin-4-yl)amino)-3-ethylpiperidin-1-yl)nicotinonitrile]
half-life [1]: 17.9 min
CLint scaled [1]: 5.84 L/h/kg
half-life [3]: 38.8 min
CLint scaled [3]: 3.84 L/h/kg
clearance (CL) [4]: 0.41 L/h/kg
F [4]: 106.1%
AUC(0-t) [4]: 2.32 µg·h/mL
half-life [4]: 93.6 min
Vd [4]: 0.81 L/kg

CCC1CN(c2ccc(C#N)nn2)CCC1Nc1ccnc(Nc2cc(C)n(C)n2)n1 (stereo not drawn) [Ex. 22, 6-(4-((2-((1,5-dimethyl-1H-pyrazol-3-yl)amino)pyrimidin-4-yl)amino)-3-ethylpiperidin-1-yl)pyridazine-3-carbonitrile]
half-life [1]: 62.6 min
CLint scaled [1]: 1.67 L/h/kg
half-life [3]: 45.5 min
CLint scaled [3]: 3.28 L/h/kg
clearance (CL) [4]: 1.99 L/h/kg
F [4]: 62.7%
AUC(0-t) [4]: 0.512 µg·h/mL
half-life [4]: 39.6 min
Vd [4]: 1.66 L/kg

CCC1CN(c2ccc(C#N)cn2)CCC1Nc1nc(Nc2ccc3c(C)n(C)nc3c2)ncc1Cl (stereo not drawn) [Ex. 23]
half-life [1]: 15.5 min
CLint scaled [1]: 6.72 L/h/kg
half-life [3]: 20.4 min
CLint scaled [3]: 7.29 L/h/kg
clearance (CL) [4]: 0.41 L/h/kg
F [4]: 31.0%
AUC(0-t) [4]: 2.43 µg·h/mL
half-life [4]: 81 min
Vd [4]: 0.84 L/kg

Cc1c2ccc(Nc3ncc(Cl)c(N(C)C4CCN(c5ccc(C#N)nn5)CC4)n3)cc2nn1C [Ex. 24]
half-life [1]: 6.4 min
CLint scaled [1]: 16.3 L/h/kg
half-life [3]: 7.12 min
CLint scaled [3]: 20.9 L/h/kg
